The values that follow come from ChEMBL document CHEMBL4421722, “Inhibitors of protein prenyltransferases” (2013).

The species entered for the test is Rattus norvegicus. The test can be described thus: Inhibition of rat recombinant geranylgeranyltransferase type I expressed in Escherichia coli assessed as residual enzyme activity for geranylgeranylation of K-Ras4B at 50 uM incubated for 30 mins in presence of [3H]GGPP by scintillation counting assay relative to control.
`COc1ccc([C@@H]2C[C@@H](Sc3ccccc3)[C@H](C(=O)O)CN2S(=O)(=O)c2ccccc2)cc1`: the Activity is 103%.

For the compound `CCCCCS[C@@H]1C[C@@H](c2ccc(Cl)cc2)N(S(=O)(=O)c2ccccc2C)C[C@H]1C(=O)O`, the Activity was 57.9%.

Take `COc1ccc([C@@H]2C[C@@H](SC3CCCC3)[C@H](C(=O)O)CN2S(=O)(=O)c2ccc(Cl)cc2)cc1`: the Activity is 83.1%.

Consider `COc1ccc([C@@H]2C[C@@H](SCC(C)C)[C@H](C(=O)O)CN2S(=O)(=O)c2ccccc2)cc1`, for which the Activity is 70.2%.

Turning to `CCCCCS[C@@H]1C[C@@H](c2ccc(OC)cc2)N(S(=O)(=O)c2ccc(Cl)cc2)C[C@H]1C(=O)O`, the Activity stood at 70.9%.

With `CCS[C@@H]1C[C@@H](c2ccccc2)N(S(=O)(=O)c2ccc(C)cc2)C[C@H]1C(=O)O`, the Activity is 94.8%.

In the case of `COc1ccc([C@@H]2CC=C(C(=O)O)[C@H](c3ccc(C(C)(C)C)cc3)N2S(=O)(=O)c2ccccc2)cc1`, the Activity was 82.2%.

Regarding `CCS[C@@H]1C[C@@H](c2ccc(OC)cc2)N(S(=O)(=O)c2ccc(C)cc2)C[C@H]1C(=O)O`, the Activity worked out at 96.3%.

As for `CCCCCCS[C@@H]1C[C@@H](c2ccc(OC)c(OC)c2)N(S(=O)(=O)c2ccc(C)cc2)C[C@H]1C(=O)O`, the Activity amounted to 97.2%.

With `Cc1ccc(S(=O)(=O)N2[C@@H](c3ccc(F)cc3)C(C(=O)O)=CC[C@H]2c2ccccc2F)cc1`, the Activity turned out to be 56%.

As for `COC(=O)c1ccccc1S(=O)(=O)N1[C@@H](c2ccc(F)cc2)C(C(=O)O)=CC[C@H]1c1ccc(C)cc1`, the Activity turned out to be 76.9%.

Consider `C=CCS[C@@H]1C[C@@H](c2ccccc2F)N(S(=O)(=O)c2ccc(C)cc2)C[C@H]1C(=O)O`, for which the Activity was 53.1%.

Turning to `COc1ccc([C@@H]2CC=C(C(=O)O)[C@H](c3cccc(Cl)c3)N2S(=O)(=O)c2ccc(C)cc2)cc1`, the Activity amounted to 89.3%.

Regarding `Cc1ccc([C@@H]2CC=C(C(=O)O)[C@H](c3ccc(Br)cc3)N2S(=O)(=O)c2ccc(C)cc2)cc1`, the Activity stood at 68.1%.

`C=CCS[C@@H]1C[C@@H](c2ccc(OC)cc2)N(S(=O)(=O)c2ccccc2C)C[C@H]1C(=O)O`: the Activity stood at 65.1%.

As for `CC(=O)C1=CC[C@@H](c2ccc(Cl)cc2)N(S(=O)(=O)c2ccccc2C)C1`, the Activity came out at 91.9%.

In the case of `Cc1ccc([C@H]2C(C(=O)O)=CC[C@@H](c3ccc(F)cc3)N2S(=O)(=O)c2ccc(C)cc2)cc1`, the Activity amounted to 54.8%.

For the compound `Cc1ccc(S[C@@H]2C[C@@H](c3cccc(Cl)c3)N(S(=O)(=O)c3ccc(C)cc3)C[C@H]2C(=O)O)cc1`, the Activity came out at 88.8%.

On to `COc1ccc(S[C@@H]2C[C@@H](c3ccc(OC)cc3)N(S(=O)(=O)c3ccc(C)cc3)C[C@H]2C(=O)O)cc1`, for which the Activity is 97%.

On to `Cc1ccc(S(=O)(=O)N2[C@@H](c3ccc(Br)cc3)C(C(=O)O)=CC[C@H]2c2cccc(Cl)c2)cc1`, for which the Activity came out at 69.2%.

For `CCS[C@@H]1C[C@@H](c2cccc(Cl)c2)N(S(=O)(=O)c2ccc(C)cc2)C[C@H]1C(=O)O`, the Activity is 75.7%.

For `Cc1ccc(S(=O)(=O)N2[C@@H](c3cccc(F)c3)C(C(=O)O)=CC[C@H]2c2ccc(F)cc2)cc1`, the Activity was 70.1%.

Turning to `Cc1ccc([C@@H]2C[C@@H](SCC(C)C)[C@H](C(=O)O)CN2S(=O)(=O)c2ccc(C)cc2)cc1`, the Activity amounted to 83.5%.

As for `Cc1ccc(S(=O)(=O)N2[C@@H](c3cccc(F)c3)C(C(=O)O)=CC[C@H]2c2ccccc2F)cc1`, the Activity turned out to be 75%.

In the case of `CCCCCCS[C@@H]1C[C@@H](c2cccc(Cl)c2)N(S(=O)(=O)c2ccc(C)cc2)C[C@H]1C(=O)O`, the Activity was 77.3%.

Consider `C=CCS[C@@H]1C[C@@H](c2ccc(OC)cc2)N(S(=O)(=O)c2ccc(C)cc2)C[C@H]1C(=O)O`, for which the Activity amounted to 108%.

As for `Cc1ccc(S(=O)(=O)N2[C@@H](c3ccc(Br)cc3)C(C(=O)O)=CC[C@H]2c2ccc(C(C)C)cc2)cc1`, the Activity is 83.7%.

With `COc1cccc([C@@H]2C[C@@H](SCCC(C)C)[C@H](C(=O)O)CN2S(=O)(=O)c2ccc(C)cc2)c1`, the Activity came out at 62%.

Consider `Cc1ccc([C@@H]2CC=C(C(=O)O)[C@H](c3ccc(F)cc3)N2S(C)(=O)=O)cc1`, for which the Activity was 84.4%.

With `CCCS[C@@H]1C[C@@H](c2ccc(OC)cc2)N(S(=O)(=O)c2ccc(C)cc2)C[C@H]1C(=O)O`, the Activity is 88.9%.

`CC(=O)C1=CC[C@@H](c2ccc(C(C)C)cc2)N(S(=O)(=O)c2ccc(C)cc2)C1`: the Activity is 105%.

As for `COC(=O)c1ccccc1S(=O)(=O)N1[C@@H](c2cccc(Cl)c2)C(C(=O)O)=CC[C@H]1c1ccc(C)cc1`, the Activity came to 56.2%.

As to `COc1ccc([C@@H]2CC=C(C(=O)O)[C@H](c3ccc(C)cc3)N2S(=O)(=O)c2ccccc2)cc1`, the Activity was determined as 88.2%.

As to `CCCCCCS[C@@H]1C[C@@H](c2ccc(OC)cc2)N(S(=O)(=O)c2ccccc2C)C[C@H]1C(=O)O`, the Activity is 72.9%.

For `Cc1ccc(S(=O)(=O)N2[C@@H](c3cccc(Cl)c3)C(C(=O)O)=CC[C@H]2c2ccc(F)cc2)cc1`, the Activity amounted to 66.7%.

Consider `CCCCCCS[C@@H]1C[C@@H](c2ccc(C)cc2)N(S(=O)(=O)c2ccc(C)cc2)C[C@H]1C(=O)O`, for which the Activity stood at 70.9%.

Take `COc1ccc([C@@H]2C[C@@H](SCc3ccc(C(C)(C)C)cc3)[C@H](C(=O)O)CN2S(=O)(=O)c2ccccc2C)cc1`: the Activity came out at 87.2%.

`COc1ccc([C@@H]2CC=C(C(=O)O)[C@H](c3cccc(F)c3)N2S(=O)(=O)c2ccc(Cl)cc2)cc1`: the Activity is 69.3%.

As for `Cc1ccc([C@@H]2C[C@@H](Sc3ccccc3)[C@H](C(=O)O)CN2S(C)(=O)=O)cc1`, the Activity was found to be 99.6%.

As to `C=CCS[C@@H]1C[C@@H](c2ccc3c(c2)OCO3)N(S(=O)(=O)c2ccc(C)cc2)C[C@H]1C(=O)O`, the Activity stood at 76.4%.

In the case of `CCCCCS[C@@H]1C[C@@H](c2ccc(OC)c(OC)c2)N(S(=O)(=O)c2ccc(C)cc2)C[C@H]1C(=O)O`, the Activity came to 109%.

As for `CCS[C@@H]1C[C@@H](c2ccc(C)cc2)N(S(=O)(=O)c2ccc(C)cc2)C[C@H]1C(=O)O`, the Activity was determined as 90.1%.

For `COc1cccc([C@@H]2CC=C(C(=O)O)[C@H](c3ccc(Br)cc3)N2S(=O)(=O)c2ccc(C)cc2)c1`, the Activity turned out to be 65.8%.

Consider `CCCS[C@@H]1C[C@@H](c2ccc(C)cc2)N(S(=O)(=O)c2ccccc2C)C[C@H]1C(=O)O`, for which the Activity is 99.4%.

With `COc1cccc([C@@H]2C[C@@H](SCc3ccc(C(C)(C)C)cc3)[C@H](C(=O)O)CN2S(=O)(=O)c2ccc(C)cc2)c1`, the Activity is 39%.

Consider `COc1ccc([C@@H]2C[C@@H](Sc3ccccc3)[C@H](C(=O)O)CN2S(=O)(=O)c2ccccc2C)cc1`, for which the Activity is 84.8%.

Turning to `COc1ccc(S[C@@H]2C[C@@H](c3cccc(Br)c3)N(S(=O)(=O)c3ccc(C)cc3)C[C@H]2C(=O)O)cc1`, the Activity is 81.4%.

For `COC(=O)c1ccccc1S(=O)(=O)N1[C@@H](c2cccc(F)c2)C(C(=O)O)=CC[C@H]1c1ccc(C)cc1`, the Activity stood at 64.5%.

As to `CCOc1ccc([C@@H]2C[C@@H](SCCC(C)C)[C@H](C(=O)O)CN2S(=O)(=O)c2ccc(C)cc2)cc1`, the Activity is 95.9%.

Consider `Cc1ccc(S(=O)(=O)N2[C@@H](c3ccc(C(C)(C)C)cc3)C(C(=O)O)=CC[C@H]2c2ccccc2)cc1`, for which the Activity is 75.2%.

As for `Cc1ccc(S(=O)(=O)N2[C@@H](c3ccc(Br)cc3)C(C(=O)O)=CC[C@H]2c2ccccc2)cc1`, the Activity was 74.6%.

For the compound `CCCCCS[C@@H]1C[C@@H](c2ccc3c(c2)OCO3)N(S(=O)(=O)c2ccc(C)cc2)C[C@H]1C(=O)O`, the Activity worked out at 66%.

As to `COc1cccc([C@@H]2CC=C(C(=O)O)[C@H](c3cccc(Cl)c3)N2S(=O)(=O)c2ccc(C)cc2)c1`, the Activity came to 67.1%.

As to `COc1ccc(S[C@@H]2C[C@@H](c3ccc(Cl)cc3)N(S(=O)(=O)c3ccc(C)cc3)C[C@H]2C(=O)O)cc1`, the Activity is 85.5%.

With `Cc1ccc([C@@H]2CC=C(C(=O)O)[C@H](c3ccc(C(C)(C)C)cc3)N2S(=O)(=O)c2ccc(Cl)cc2)cc1`, the Activity was 74.4%.

Regarding `CCCCCS[C@@H]1C[C@@H](c2ccc(OC)cc2)N(S(=O)(=O)c2ccccc2C)C[C@H]1C(=O)O`, the Activity is 67.1%.

For `Cc1ccc([C@@H]2C[C@@H](SCCC(C)C)[C@H](C(=O)O)CN2S(=O)(=O)c2ccc(C)cc2)cc1`, the Activity stood at 92.9%.

As to `CCOc1ccc([C@@H]2CC=C(C(=O)O)[C@H](c3cccc(F)c3)N2S(=O)(=O)c2ccc(C)cc2)cc1`, the Activity came to 87.5%.

`CS(=O)(=O)N1[C@@H](c2cccc(Cl)c2)C(C(=O)O)=CC[C@H]1c1ccccc1`: the Activity came to 72.4%.

On to `Cc1cccc([C@H]2C(C(=O)O)=CC[C@@H](c3ccccc3)N2S(C)(=O)=O)c1`, for which the Activity came to 68.1%.

Take `CCCCCS[C@@H]1C[C@@H](c2ccc(OCC)cc2)N(S(=O)(=O)c2ccc(C)cc2)C[C@H]1C(=O)O`: the Activity is 89.1%.

For `Cc1ccc(S(=O)(=O)N2[C@@H](c3ccc(C(C)(C)C)cc3)C(C(=O)O)=CC[C@H]2c2cccc(Br)c2)cc1`, the Activity was 82.8%.

In the case of `Cc1ccc([C@@H]2CC=C(C(=O)O)[C@H](c3ccc(C(C)(C)C)cc3)N2S(=O)(=O)c2ccc(C)cc2)cc1`, the Activity was 85.5%.

Regarding `Cc1ccc(S(=O)(=O)N2[C@@H](c3ccc(F)cc3)C(C(=O)O)=CC[C@H]2c2ccccc2)cc1`, the Activity worked out at 68.1%.

With `Cc1ccc(S(=O)(=O)N2[C@@H](c3cccc(C)c3)C(C(=O)O)=CC[C@H]2c2ccc(Cl)cc2)cc1`, the Activity is 66%.

Take `Cc1ccc(S(=O)(=O)N2C[C@@H](C(=O)O)[C@H](SC3CCCC3)C[C@H]2c2ccccc2F)cc1`: the Activity worked out at 93.4%.

Take `Cc1ccc(S(=O)(=O)N2[C@@H](c3ccc(Br)cc3)C(C(=O)O)=CC[C@H]2c2cccs2)cc1`: the Activity is 71.2%.

Consider `Cc1ccc(S(=O)(=O)N2[C@@H](c3cccc(C)c3)C(C(=O)O)=CC[C@H]2c2cccs2)cc1`, for which the Activity was determined as 68.9%.

Regarding `Cc1ccc(S(=O)(=O)N2[C@@H](c3ccc(C(C)(C)C)cc3)C(C(=O)O)=CC[C@H]2c2ccc(F)cc2)cc1`, the Activity was 85.1%.

For `O=C(O)C1=CC[C@@H](c2ccc(Cl)cc2)N(S(=O)(=O)c2ccc(Cl)cc2)[C@H]1c1cccc(F)c1`, the Activity is 44.8%.
